Values quoted from earlier work in US20260256747A1, “ARYL-TRIAZOLYL AND RELATED GPR84 ANTAGONISTS AND USES THEREOF” (Liminal BioSciences Limited, priority 2022, published 2026).

Tested on: mouse dextran sodium sulfate-induced chronic inflammatory bowel disease model
Conditions: once-daily doses of 3 and 10 mg/kg; efficacy similar to sulfasalazine; cited from earlier work

Compound: O=c1nc(OC[C@@H]2COCCO2)cc2n1CCc1cc(C#CC3CC3)ccc1-2 [GLPG1205]
- disease activity index score: reduced
- neutrophil infiltration: reduced
